Experimental data published in patent US7560458B2, “Triazolopyrimidine derivatives as glycogen synthase kinase 3 inhibitors” (Janssen Pharmaceutica, N.V., priority 2003, dated 2009).

How the values were obtained:
GSK3β = GSK3β (Homo sapiens, UniProt P49841); assay: GSK3beta assay (SPA, biotinylated phosphorylated CREB peptide, ATP-P33); assay type: biochemical; conditions: −log IC50 (M); given as ranges (>8; 7-8; <7); read-out: pIC50 (GSK3beta) (converted)
Experimental: (§1) GSK3beta assays were performed at room temperature in a 100 μl reaction volume of 25 mM Tris (ph 7.4) containing 10 mM MgCl2.6H2O 1 mM DTT, 0.1 mg/ml BSA, 5% glyceol and containing 5.7 ng/μl GSK3β, 5 μM biotinylated phosphorylated CREB peptide, 1 μM APT, 0.85 μCi/ml ATP-P^33 and a suitable amount of a test compound of formula (I). After one hour, the reaction was terminated by adding 70 μl of Stop mix (0.1 mM APT, 5 mg/ml streptavidin coated PVT SPA bead pH 11.0). The beads to which the phosphorylated CREB peptide is attached were allowed to settle overnight and the radioactivity of the beads was counted in a microtiterplate scintillation counter and compared with the results obtained in a control experiment (without the presence of a test compound) in order to determine the percentage of GSK3β inhibition. The IC50 value, i.e. the concentration (M) of the test compound at which 50% of GSK3β is inhibited, was calculated from the dose response curve obtained by performing the above-described GSKK3β assay in the presence of different amounts of the test compound.

GSK3alpha = GSK3alpha (Homo sapiens, UniProt P49840); assay: GSK3alpha assay (same as the GSK3beta assay, GSK3alpha 0.25 ng/μl); assay type: biochemical; conditions: −log IC50 (M); given as ranges (>8; 7-8; <7); read-out: pIC50 (GSK3alpha) (converted)
Experimental: as §1
The GSK3alpha assay was performed in the same way as described above for the GSK3beta assay except for the concentration of GSK3alpha which is 0.25 ng/μl.

GSK3β, sequence (P49841 whole entry, species assumed): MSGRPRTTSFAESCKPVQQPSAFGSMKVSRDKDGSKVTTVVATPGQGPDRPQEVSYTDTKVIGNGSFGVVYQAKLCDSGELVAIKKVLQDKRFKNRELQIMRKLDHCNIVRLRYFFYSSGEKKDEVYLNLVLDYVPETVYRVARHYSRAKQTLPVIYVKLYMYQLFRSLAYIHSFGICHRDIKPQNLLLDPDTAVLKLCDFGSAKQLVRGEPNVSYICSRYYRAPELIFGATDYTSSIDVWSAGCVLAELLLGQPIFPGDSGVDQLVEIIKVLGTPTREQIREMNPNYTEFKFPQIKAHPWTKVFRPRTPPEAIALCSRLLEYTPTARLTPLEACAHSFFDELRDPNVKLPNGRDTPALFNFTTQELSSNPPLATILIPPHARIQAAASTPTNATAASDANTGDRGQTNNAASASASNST
GSK3alpha, sequence (P49840 whole entry, species assumed): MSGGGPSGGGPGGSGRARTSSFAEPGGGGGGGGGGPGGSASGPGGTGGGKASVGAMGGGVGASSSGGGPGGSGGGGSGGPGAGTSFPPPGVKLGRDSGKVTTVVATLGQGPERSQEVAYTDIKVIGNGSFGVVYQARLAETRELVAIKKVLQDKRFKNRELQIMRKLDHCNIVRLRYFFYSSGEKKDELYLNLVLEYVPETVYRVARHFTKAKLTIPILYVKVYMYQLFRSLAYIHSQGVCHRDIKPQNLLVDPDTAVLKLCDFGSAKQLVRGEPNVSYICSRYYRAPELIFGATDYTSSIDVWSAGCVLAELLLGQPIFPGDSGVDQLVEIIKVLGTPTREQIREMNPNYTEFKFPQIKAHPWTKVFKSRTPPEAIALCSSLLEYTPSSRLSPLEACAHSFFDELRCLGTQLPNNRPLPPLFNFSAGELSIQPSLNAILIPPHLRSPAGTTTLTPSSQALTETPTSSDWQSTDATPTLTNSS

| IC50 (GSK3β) [M] | IC50 (GSK3alpha) [M] | SMILES |
| --- | --- | --- |
| < 1e-08 | < 1e-08 | CC(=O)Nc1cccc(Nc2ncc3nnn(-c4cccc(F)c4)c3n2)c1 [Compound 11] |
| < 1e-08 | 1e-08 to 1e-07 | Nc1cccc(Nc2ncc3nnn(-c4cccc(F)c4)c3n2)c1 [Compound 12] |
| 1e-08 to 1e-07 | – | COC(=O)c1cccc(Nc2ncc3nnn(-c4cccc(F)c4)c3n2)c1 [Compound 13] |
| 1e-08 to 1e-07 | < 1e-08 | Cc1cccc(Nc2ncc3nnn(-c4cccc(F)c4)c3n2)c1 [Compound 14] |
| 1e-08 | < 1e-08 | Oc1cccc(Nc2ncc3nnn(-c4cccc(F)c4)c3n2)c1 [Compound 15] |
| 1e-08 to 1e-07 | < 1e-08 | Fc1cccc(Nc2ncc3nnn(-c4cccc(F)c4)c3n2)c1 [Compound 17] |
| < 1e-08 | < 1e-08 | CCOc1cccc(Nc2ncc3nnn(-c4cccc(F)c4)c3n2)c1 [Compound 23] |
| < 1e-08 | < 1e-08 | CNC(=O)c1cccc(Nc2ncc3nnn(-c4cccc(F)c4)c3n2)c1 [Compound 24] |
| 1e-08 to 1e-07 | < 1e-08 | O=C(O)Cc1cccc(Nc2ncc3nnn(-c4cccc(F)c4)c3n2)c1 [Compound 25] |
| 1e-08 to 1e-07 | < 1e-08 | O=C(O)c1cccc(Nc2ncc3nnn(-c4cccc(F)c4)c3n2)c1 [Compound 29] |
| < 1e-08 | < 1e-08 | O=C(O)c1ccc(Nc2ncc3nnn(-c4cccc(F)c4)c3n2)cc1 [Compound 30] |
| < 1e-08 | < 1e-08 | OCc1cccc(Nc2ncc3nnn(-c4cccc(F)c4)c3n2)c1 [Compound 31] |
| < 1e-08 | < 1e-08 | CS(=O)(=O)c1cccc(Nc2ncc3nnn(-c4cccc(F)c4)c3n2)c1 [Compound 44] |
| < 1e-08 | < 1e-08 | COCc1cccc(Nc2ncc3nnn(-c4cccc(F)c4)c3n2)c1 [Compound 56] |
| – | 1e-08 to 1e-07 | O=C(O)c1cccc(Nc2ncc3nnn(-c4cccc(CO)c4)c3n2)c1 [Compound 68] |
| – | 1e-08 to 1e-07 | O=C(O)c1cc(Nc2ncc3nnn(-c4cccc(F)c4)c3n2)ccc1Cl [Compound 70] |
| 1e-08 to 1e-07 | < 1e-08 | O=C(O)c1cc(Nc2ncc3nnn(-c4cccc(F)c4)c3n2)ccc1O [Compound 71] |
| < 1e-08 | < 1e-08 | CC(=O)NCc1cccc(Nc2ncc3nnn(-c4cccc(F)c4)c3n2)c1 [Compound 73] |
| 1e-08 to 1e-07 | 1e-08 to 1e-07 | NCc1cccc(Nc2ncc3nnn(-c4cccc(F)c4)c3n2)c1 [Compound 79] |
| < 1e-08 | < 1e-08 | NC(=O)CNC(=O)c1cccc(Nc2ncc3nnn(-c4cccc(F)c4)c3n2)c1 [Compound 89] |
| – | 1e-08 to 1e-07 | O=C(O)Cc1cccc(-n2nnc3cnc(Nc4cccc(C(=O)NCCO)c4)nc32)c1 [Compound 177] |

The next lines start with the compound.

| SMILES | IC50 (GSK3β) [M] | IC50 (GSK3alpha) [M] |
| --- | --- | --- |
| Cn1ccnc1-c1cccc(-n2nnc3cnc(Nc4cccc(C#N)c4)nc32)c1 [Compound 4] | < 1e-08 | 1e-08 to 1e-07 |
| N#CSc1ccc(Nc2ncc3nnn(-c4cccc(F)c4)c3n2)cc1 [Compound 18] | 1e-08 to 1e-07 | 1e-08 to 1e-07 |
| Fc1cccc(-n2nnc3cnc(Nc4ccc(OC(F)F)cc4)nc32)c1 [Compound 19] | 1e-08 to 1e-07 | < 1e-08 |
| N#CCc1ccc(Nc2ncc3nnn(-c4cccc(F)c4)c3n2)cc1 [Compound 20] | 1e-08 to 1e-07 | < 1e-08 |
| Cc1ccc(Nc2ncc3nnn(-c4cccc(F)c4)c3n2)cc1O [Compound 21] | < 1e-08 | < 1e-08 |
| Fc1cccc(-n2nnc3cnc(Nc4cccc(OC(F)(F)F)c4)nc32)c1 [Compound 22] | < 1e-08 | < 1e-08 |
| Fc1cccc(-n2nnc3cnc(Nc4ccc(Cl)nc4)nc32)c1 [Compound 32] | < 1e-08 | < 1e-08 |
| N#Cc1cccc(Nc2ncc3nnn(-c4cccc(Br)c4)c3n2)c1 [Compound 33] | < 1e-08 | < 1e-08 |
| N#Cc1cccc(Nc2ncc3nnn(-c4ccccc4)c3n2)c1 [Compound 34] | < 1e-08 | < 1e-08 |
| COc1cccc(-n2nnc3cnc(Nc4cccc(S(N)(=O)=O)c4)nc32)c1 [Compound 35] | < 1e-08 | < 1e-08 |
| NS(=O)(=O)c1cccc(Nc2ncc3nnn(-c4cccc(CO)c4)c3n2)c1 [Compound 36] | < 1e-08 | < 1e-08 |
| NS(=O)(=O)c1ccc(Nc2ncc3nnn(-c4ccccc4)c3n2)cc1 [Compound 37] | < 1e-08 | < 1e-08 |
| NC(=O)c1cccc(Nc2ncc3nnn(-c4ccccc4)c3n2)c1 [Compound 38] | < 1e-08 | < 1e-08 |
| NC(=O)c1cccc(Nc2ncc3nnn(-c4cccc(C(N)=O)c4)c3n2)c1 [Compound 39] | < 1e-08 | < 1e-08 |
| COc1cccc(-n2nnc3cnc(Nc4cccc(NC(C)=O)c4)nc32)c1 [Compound 42] | < 1e-08 | < 1e-08 |
| COc1cccc(-n2nnc3cnc(Nc4cccc(C(C)O)c4)nc32)c1 (stereo not drawn) [Compound 43] | < 1e-08 | < 1e-08 |
| CS(=O)(=O)Nc1cccc(Nc2ncc3nnn(-c4cccc(F)c4)c3n2)c1 [Compound 45] | < 1e-08 | < 1e-08 |
| COc1ccc(Nc2ncc3nnn(-c4ccccc4)c3n2)cn1 [Compound 47] | < 1e-08 | < 1e-08 |
| COc1cccc(-n2nnc3cnc(Nc4cccc(C(C)=O)c4)nc32)c1 [Compound 51] | < 1e-08 | < 1e-08 |
| COc1cccc(-n2nnc3cnc(Nc4cccc(NS(C)(=O)=O)c4)nc32)c1 [Compound 52] | < 1e-08 | < 1e-08 |
| COc1cccc(-n2nnc3cnc(Nc4cccc(S(C)(=O)=O)c4)nc32)c1 [Compound 53] | < 1e-08 | < 1e-08 |
| OCc1cccc(Nc2ncc3nnn(-c4cccc(CO)c4)c3n2)c1 [Compound 54] | < 1e-08 | < 1e-08 |
| CS(=O)(=O)Nc1cccc(Nc2ncc3nnn(-c4cccc(S(N)(=O)=O)c4)c3n2)c1 [Compound 58] | < 1e-08 | < 1e-08 |

| SMILES | IC50 (GSK3β) [M] | IC50 (GSK3alpha) [M] |
| --- | --- | --- |
| CC(=O)Nc1cccc(Nc2ncc3nnn(-c4ccccc4)c3n2)c1 [Compound 59] | < 1e-08 | < 1e-08 |
| CC(=O)c1cccc(Nc2ncc3nnn(-c4ccccc4)c3n2)c1 [Compound 60] | < 1e-08 | < 1e-08 |
| COCc1cccc(Nc2ncc3nnn(-c4ccccc4)c3n2)c1 [Compound 61] | < 1e-08 | < 1e-08 |
| CS(=O)(=O)Nc1cccc(Nc2ncc3nnn(-c4cccc(CO)c4)c3n2)c1 [Compound 62] | < 1e-08 | < 1e-08 |
| CC(=O)Nc1cccc(Nc2ncc3nnn(-c4cccc(S(N)(=O)=O)c4)c3n2)c1 [Compound 63] | < 1e-08 | < 1e-08 |
| CC(=O)c1cccc(Nc2ncc3nnn(-c4cccc(S(N)(=O)=O)c4)c3n2)c1 [Compound 64] | < 1e-08 | < 1e-08 |
| COc1cccc(-n2nnc3cnc(Nc4cccc(C(=O)O)c4)nc32)c1 [Compound 66] | 1e-08 to 1e-07 | 1e-08 to 1e-07 |
| COc1cccc(-n2nnc3cnc(Nc4ccc(O)c(C(=O)O)c4)nc32)c1 [Compound 72] | 1e-08 to 1e-07 | < 1e-08 |
| COC(=O)c1cccc(-n2nnc3cnc(Nc4cccc(CNC(C)=O)c4)nc32)c1 [Compound 74] | 1e-08 | < 1e-08 |
| CC(=O)NCc1cccc(Nc2ncc3nnn(-c4ccccc4)c3n2)c1 [Compound 75] | 1e-08 to 1e-07 | < 1e-08 |
| O=S(=O)(CCO)c1cccc(Nc2ncc3nnn(-c4cccc(F)c4)c3n2)c1 [Compound 77] | < 1e-08 | < 1e-08 |
| NCc1cccc(Nc2ncc3nnn(-c4ccccc4)c3n2)c1 [Compound 78] | 1e-08 to 1e-07 | 1e-08 to 1e-07 |
| COCc1cccc(-n2nnc3cnc(Nc4cccc(CNC(C)=O)c4)nc32)c1 [Compound 80] | < 1e-08 | < 1e-08 |
| COCc1cccc(-n2nnc3cnc(Nc4cccc(NC(C)=O)c4)nc32)c1 [Compound 81] | < 1e-08 | < 1e-08 |
| CCOc1ccc(Nc2ncc3nnn(-c4ccccc4)c3n2)cn1 [Compound 82] | 1e-08 to 1e-07 | < 1e-08 |
| CC(=O)Nc1ccc(Nc2ncc3nnn(-c4ccccc4)c3n2)cn1 [Compound 83] | 1e-08 to 1e-07 | 1e-08 to 1e-07 |
| COCc1cccc(-n2nnc3cnc(Nc4cccc(NS(C)(=O)=O)c4)nc32)c1 [Compound 84] | < 1e-08 | < 1e-08 |
| COCc1cccc(-n2nnc3cnc(Nc4cccc(S(N)(=O)=O)c4)nc32)c1 [Compound 85] | 1e-08 to 1e-07 | < 1e-08 |
| COCc1cccc(-n2nnc3cnc(Nc4cccc(C(C)=O)c4)nc32)c1 [Compound 86] | < 1e-08 | < 1e-08 |
| CC(=O)Nc1ccc(Nc2ncc3nnn(-c4cccc(F)c4)c3n2)cn1 [Compound 87] | 1e-08 to 1e-07 | < 1e-08 |
| O=S(=O)(NCCO)c1cccc(Nc2ncc3nnn(-c4cccc(F)c4)c3n2)c1 [Compound 88] | < 1e-08 | < 1e-08 |
| COCCNC(=O)c1cccc(Nc2ncc3nnn(-c4cccc(F)c4)c3n2)c1 [Compound 90] | < 1e-08 | < 1e-08 |
| COCCOCc1cccc(-n2nnc3cnc(Nc4cccc(C#N)c4)nc32)c1 [Compound 290] | < 1e-08 | – |
